Marks after values point to notes of the source that are not given here.
Columns and labels:
[1] = system: inflammatory cytokines in tissues of db/db mice; test: Inflammatory cytokine mRNA levels in tissues of high-fat diet fed db/db mice (RT-PCR); assay type: in vivo, mouse; details: 5 mg/kg; for mRNA level of iNOS (fold), Liver tissue: vehicle 1.06 ± 0.14; for mRNA level of iNOS (fold), Colon tissue: vehicle 1.12 ± 0.23; for WAT, mRNA level (fold), IL-1β / WAT, mRNA level (fold), TNFα: white adipose tissue; for WAT, mRNA level (fold), IL-1β: vehicle 1.06 ± 0.2; for WAT, mRNA level (fold), TNFα: vehicle 1.15 ± 0.13
From the text: In this example, we detected the levels of various inflammatory cytokines including iNOS, IFNγ, TGFβ, TNFα, COX2, IL-1β, IL-6, SAA1, MIP-1α and CD36 in liver, kidney, white adipose tissue (WAT) in various mice models, including wild type mice treated with APAP in example 4, high-fat diet fed diabetic and obesity db/db and KK-Ay mice in example 5, high-fat diet fed wild-type mice in Example 5, as well as in primary hepatocytes with LPS induced inflammation, using RT-PCR.

[2] = system: db/db mice; test: Serum/blood metabolic parameters in high-fat diet fed db/db mice; assay type: in vivo, mouse; details: 10 mg/kg, treat for 10 days, vehicle 527 ± 63
From the text: KK-Ay mice (KK/Upj-Ay/J) are animal models with moderate obese and diabetes with insulin resistance. KK-Ay mice develop hyperglycemia, hyperinsulinemia, glucose intolerance and obesity as well as fat accumulation in liver by eight weeks of age. Pancreatic islets are hypertrophied and the β-cells are degranulated. db/db mice (BKS.Cg-Dockr+/+ Lepr^db/Jnju) are animal models of type II diabetes. They have the phenotype of insulin resistance. These model mice were used to detect the functions of our compounds on metabolic diseases.
8-10 weeks age mice were maintained as example 4, and fed with high-fat diet (Research Diets, D12492). Mice were i.p. injected with compounds once daily for 7, 10, 11 or 14 days as indicated in each table. After the last compounds injection, mice were fasted for 6 hours with free access to water, and then sacrificed. Part of each liver was fixed in 4% paraformaldehyde for H&E staining, and other liver tissues were stored in liquid nitrogen for enzyme activity measurement and gene expression analysis by RT-PCR. The serums were collected to measure metabolic parameters, including serum glucose, insulin, cholesterol, free fatty acid (FFA) and triglyceride levels. Serum glucose was analyzed using glucose oxidase method (Applygen, Beijing, China). The blood glucose in Table 11 was measured with Berenger blood glucose test strips (B/BRAUN, German) from blood by cutting mice tail after the 6th injection and following fast for 16 hours. Serum cholesterol and FFA were analyzed using Cholesterol Assay Kit and FFA Assay Kit (Bioassay Systems, USA; Nanjing Jiancheng Bioengineering Institute, China; FFA ELISA, R&D, USA), respectively. Serum triglyceride was analyzed using Triglyceride Assay Kit (Bioassay Systems, USA; WAKO Chemicals Inc., Japan; Applygen, Beijing, China). Liver triglyceride was analyzed using Tissue triglyceride assay kit (Applygen, Beijing, China). Serum insulin levels were measured by the Ultra Sensitive Mouse Insulin ELISA Kit (Crystal Chem. Inc., USA). RNA was isolated using Tissue RNA kit (Omega Bio-Tek, GA). The first strand cDNA were obtained by TAKARA reverse transcription kit. Real-time quantitative PCR were performed on a CFX96™ Real-Time PCR Detection System (Bio-Rad) using SYBR Premix Ex Taq™ (TAKARA). Relative mRNA expression levels were normalized to actin levels. […]

[3] = system: collagen related genes in mice livers; test: Liver mRNA levels of collagen related genes in mice of Example 5 (RT-PCR); assay type: in vivo, mouse; details: 10 mg/kg
From the text: NAFLD with excessive fat accumulation in liver will affect the blood and oxygen supplies to liver and the metabolism of liver organ, resulting in amounts of cell swelling, inflammatory infiltration and necrosis in liver. […] The levels of various collagen contents are higher in patients with liver cirrhosis. Masson's staining is a three-color staining protocol used in histology. It is widely used to study hepatic pathologies (cirrhosis). It's an authoritative and classic method to detect the existence and extend of accumulation of the collagen fiber. Sirius Red staining is also presented as a method for collagen determination. In this example, the Masson's staining and […] were performed to detect the collagen deposit in high fat diet fed db/db mice in Example 5. The Masson's staining kit (Nanjing Jiancheng Engineering Institute, China) was used for the staining of liver sections in Example 5. The Sirius red staining is performed as standard procedure. RT-PCR was used detect the expression of collagen and related genes such as α1(I) collagen, α2(I)collagen, α-SMA and MCP-1 in mice livers.

[4] = system: mice with APAP-induced liver injury; test: Acetaminophen (APAP)-induced liver injury in mouse; assay type: in vivo; details: for Liver morphology by H&E staining (FIG. 1): 10 mg/kg (Tschimganine 20 mg/kg) i.p. five days, then APAP, compared to severe liver injury in control group; for Hepatic GSH (μM/g liver tissue) / ALT (U/L): then APAP 500 mg/kg; for expression levels of GPX1 and UGT1α1 in liver: mRNA by RT-PCR; for expression levels of GPX1 and UGT1α1 in liver / activities of serum AST, ALT and LDH: vs vehicle control group, Table 5 (not given); for ALT (U/L): serum, vehicle 786 ± 111
From the text: Methods: Acetaminophen (APAP)-induced liver injury in mouse is a commonly used model to study drugs protecting liver. Overdose of APAP causes liver injury by inducing the production of reactive oxygen species and reactive nitrogen species, and excessive consumption of reductive substances such as antioxidant glutathione (GSH), leading to the reduction of GSH in vivo, and the following upregulation of the activities of the aspartate aminotransferase (AST), the alanine aminotransferase (ALT) and the lactate dehydrogenase (LDH), which will result in liver inflammation and necrosis. In this example, the APAP-induced liver injury was used to detect the protection and repair functions of our compounds in liver injury.
One-year or 8-week age mice were maintained under environmentally controlled conditions with free access to standard chow diet and water. Animal experiments were conducted in the barrier facility of the Laboratory Animal Center, Xiamen University, approved by the Institutional Animal Use and Care Committee of Xiamen University, China.
Compounds were solved with DMSO and then prepared to work concentration with 40% HBC (2-hydroxypropyl-β-cyclodextrin) in which the final work concentrations of compounds are 5 mg/kg body weight, 10 mg/kg or 20 mg/kg in 100 μl injection volume and the concentration of DMSO is 10%. Compounds were intraperitoneal (i.p.) injected once daily for five days. For Feroline and Tschimganine, one-year age mice were used in the experiment. For other compounds, 8-week age mice were used. […] For Tschimganine, 20 mg/kg dose of compound was administered to mice. For other compounds, 5 mg/kg dose of compounds were administered to mice. Six hours after the fifth injection, 500 mg/kg body weight of APAP solved in PBS was i.p. injected to the mice. 24 hours later, mice were sacrificed. Part of each liver was fixed in 4% paraformaldehyde, and the liver histology characterization was analyzed by haematoxylin and eosin (H&E) staining with paraffin-embedded sections by standard procedures. Other liver tissues were collected for detecting the GSH levels, and the mRNA expression of genes involved in liver repairing, such as GPX1 and UGT1a1, by RT-PCR. The serums were collected to measure enzymes activities including AST, ALT and LDH. For the synthetic derivatives, ALT and GSH were selected as indicating markers for the function of these compounds.

[5] = 5 mg/kg i.p. once daily for five days, 8-week age mice, vehicle 9.1 ± 0.5
[6] = 5 mg/kg i.p. once daily for five days, 8-week age mice

| Compound | Serum Glucose (mg/dl) [2] | Hepatic GSH (μM/g liver tissue) [4, 5] | ALT (U/L) [4, 6] | further results |
| --- | --- | --- | --- | --- |
| CC1(C)C2CCC1(C)C(OC(=O)C1CCC(O)CC1)C2 (stereo not drawn) [XD-20, 1,7,7-trimethyl-bicyclo[2.2.1]-heptan-2-yl 4-hydroxy-cyclohexane-carboxylate] | 396 ± 55^a mg/dl | – | – | mRNA level of iNOS (fold), Liver tissue [1]: 0.51 ± 0.2^a fold; mRNA level of iNOS (fold), Colon tissue [1]: 0.5 ± 0.18^a fold |
| C/C1=C\CCC(C)(O)/C=C/C(C(C)C)C(OC(=O)c2ccc(O)cc2)C1 (stereo not drawn) [Feroline] | – | – | – | Relative mRNA level of α-SMA ([3]; vehicle 1 ± 0.1): 0.73 ± 0.06^a; Relative mRNA level of α2(I) collagen ([3]; vehicle 1.1 ± 0.1): 0.6 ± 0.06^a; Relative mRNA level of α1(I) collagen ([3]; vehicle 1.1 ± 0.2): 0.37 ± 0.1^a; Liver morphology by H&E staining (FIG. 1) [4]: almost normal liver morphology; Hepatic GSH (μM/g liver tissue) ([4]; 10 mg/kg i.p. once daily for five days, one-year age mice, vehicle 8.0 ± 2.8): 14.2 ± 1.6^b μM/g liver tissue; expression levels of GPX1 and UGT1α1 in liver [4]: significantly upregulated; activities of serum AST, ALT and LDH [4]: dramatically lower |
| Cc1cc(C(=O)OC2CCC3CCCCC3C2)ccc1[N+](=O)[O-] (stereo not drawn) [XD-35, decahydro-naphthalen-2-yl 3-methyl-4-nitro-benzoate] | 337 ± 67^a mg/dl | 12.6 ± 1.6 ^a μM/g liver tissue | – | – |
| Nc1ccc(C(=O)OC2CCCCCC2)cc1 [XD-12, cycloheptyl 4-aminobenzoate] | – | 12.5 ± 0.7 ^a μM/g liver tissue | – | – |
| CC1(C)C2CCC1(C)C(OC(=O)c1ccc(=O)[nH]c1)C2 (stereo not drawn) [XD-8, 1,7,7-trimethyl-bicyclo[2.2.1]-heptan-2-yl 6-oxo-1,6-dihydropyridine-3-carboxylate] | – | – | 115 ± 38 ^c U/L | – |
| CC1(C)C2CCC1(C)C(OC(=O)c1ccc(F)c(Br)c1)C2 (stereo not drawn) [XD-13, 1,7,7-trimethyl-bicyclo[2.2.1]-heptan-2-yl 3-bromo-4-fluoro-benzoate] | – | 13.7 ± 0.9 ^a μM/g liver tissue | – | – |
| COc1cc(C(=O)OC2CCCCCCC2)ccc1O [XD-18, cyclooctyl 4-hydroxy-3-methoxybenzoate] | – | – | 135 ± 48 ^a U/L | – |
| CC1(C)C2CCC1(C)C(OC(=O)c1ccncc1)C2 (stereo not drawn) [XD-6, 1,7,7-trimethyl-bicyclo[2.2.1]-heptan-2-yl isonicotinate] | – | – | 109 ± 26 ^c U/L | – |
| CC1(C)C2CCC1(C)C(OC(=O)c1ccc(F)cc1)C2 (stereo not drawn) [XD-0, 1,7,7-trimethyl-bicyclo[2.2.1]-heptan-2-yl 4-fluorobenzoate] | 223 ± 33^b mg/dl | 15.0 ± 0.5 ^b μM/g liver tissue | – | – |
| O=C(OC1CCCCCCC1)c1ccc(O)cc1 [XD-10, cyclooctyl 4-hydroxybenzoate] | – | – | 114 ± 31 ^c U/L | mRNA level of iNOS (fold), Liver tissue [1]: 0.52 ± 0.3^a fold; mRNA level of iNOS (fold), Colon tissue [1]: 0.49 ± 0.21^a fold |
| CC1(C)C2CCC1(C)C(OC(=O)c1ccc(N)cc1)C2 (stereo not drawn) [XD-5, 1,7,7-trimethyl-bicyclo[2.2.1]-heptan-2-yl 4-aminobenzoate] | – | 12.8 ± 0.3 ^b μM/g liver tissue | 197 ± 57 ^b U/L | WAT, mRNA level (fold), IL-1β [1]: 0.33 ± 0.2^a fold; WAT, mRNA level (fold), TNFα [1]: 0.56 ± 0.17^a fold |
| O=C(OC1CCC2CCCCC2C1)c1ccc(O)cc1 (stereo not drawn) [XD-28, decahydro-naphthalen-2-yl 4-hydroxy-benzoate] | – | – | 114 ± 25 ^c U/L | – |
| Nc1ccc(C(=O)OC2CCC3CCCCC3C2)cc1 (stereo not drawn) [XD-23, decahydro-naphthalen-2-yl 4-aminobenzoate] | – | – | 130 ± 62 ^a U/L | mRNA level of iNOS (fold), Liver tissue [1]: 0.2 ± 0.1^a fold; mRNA level of iNOS (fold), Colon tissue [1]: 0.55 ± 0.29^a fold; WAT, mRNA level (fold), IL-1β [1]: 0.64 ± 0.13^a fold; WAT, mRNA level (fold), TNFα [1]: 0.6 ± 0.21^a fold |
| COc1cc(C(=O)OC2C/C(C)=C/CC/C(C)=C/[C@@H](O)[C@H]2C(C)C)ccc1O (stereo partly drawn) [Tschimganidine] | – | – | – | Liver morphology by H&E staining (FIG. 1) [4]: almost normal liver morphology; expression levels of GPX1 and UGT1α1 in liver [4]: significantly upregulated; activities of serum AST, ALT and LDH [4]: dramatically lower |
| COc1cc(C(=O)OC2CCC3CCCCC3C2)ccc1[N+](=O)[O-] (stereo not drawn) [XD-36, decahydro-naphthalen-2-yl 3-methoxy-4-nitrobenzoate] | 366 ± 65^a mg/dl | 14.8 ± 0.3 ^b μM/g liver tissue | – | – |
| O=C(OC1CCCCCCCCCCC1)c1ccc(O)cc1 [XD-11, cyclododecyl 4-hydroxybenzoate] | – | 12.6 ± 0.4 ^b μM/g liver tissue | – | – |
| COc1cc(C(=O)OC2CCC3CCCCC3C2)ccc1O (stereo not drawn) [XD-30, decahydro-naphthalen-2-yl 4-hydroxy-3-methoxybenzoate] | 400 ± 51^a mg/dl | – | 107 ± 41 ^b U/L | – |
| Cc1cc(C(=O)OC2CCC3CCCCC3C2)ccc1O (stereo not drawn) [XD-29, decahydro-naphthalen-2-yl 4-hydroxy-3-methylbenzoate] | – | – | 118 ± 31 ^c U/L | – |
| CC1(C)C2CCC1(C)C(OC(=O)c1ccc(=O)oc1)C2 (stereo not drawn) [XD-9, 1,7,7-trimethyl-bicyclo[2.2.1]-heptan-2-yl 6-oxo-6H-pyran-3-carboxylate] | 399 ± 41^a mg/dl | – | – | – |

Reference: patent publication US20180116993A1, “MODULATORS OF FARNESOID X RECEPTOR AND METHODS FOR THE USE THEREOF” (XIAMEN UNIVERSITY, priority 2015, published 2018)
